What was measured:
hABL1-p = target: T1, hABL1-p (Homo sapiens, UniProt P00519); assay: KINOMEscan; format: binding
T1 construct: purchased DiscoverX (KINOMEscan platform)

hAKT2 = target: T2, hAKT2 (Homo sapiens, UniProt P31751); assay: KINOMEscan; format: binding
T2 construct: purchased DiscoverX

hALK = target: T3, hALK (Homo sapiens, UniProt Q9UM73); assay: KINOMEscan; format: binding
T3 construct: purchased DiscoverX

hAMPK-alpha1 = target: T4, hAMPK-alpha1 (Homo sapiens, UniProt Q13131); assay: KINOMEscan; format: binding
T4 construct: purchased DiscoverX

hASK1 = target: T5, hASK1 (Homo sapiens, UniProt Q99683); assay: KINOMEscan; format: binding
T5 construct: purchased DiscoverX

hBRSK2 = target: T6, hBRSK2 (Homo sapiens, UniProt Q8IWQ3); assay: KINOMEscan; format: binding
T6 construct: purchased DiscoverX

hBUB1 = target: T7, hBUB1 (Homo sapiens, UniProt O43683); assay: KINOMEscan; format: binding
T7 construct: purchased DiscoverX

hCAMK4 = target: T8, hCAMK4 (Homo sapiens, UniProt Q16566); assay: KINOMEscan; format: binding
T8 construct: purchased DiscoverX

hCSNK1E = target: T9, hCSNK1E (Homo sapiens, UniProt P49674); assay: KINOMEscan; format: binding
T9 construct: purchased DiscoverX (KINOMEscan platform)

hDCAMKL2 = target: T10, hDCAMKL2 (Homo sapiens, UniProt Q8N568); assay: KINOMEscan; format: binding
T10 construct: purchased DiscoverX (KINOMEscan platform)

hDDR1 = target: T11, hDDR1 (Homo sapiens, UniProt Q08345); assay: KINOMEscan; format: binding
T11 construct: purchased DiscoverX (KINOMEscan platform)

hDMPK = target: T12, hDMPK (Homo sapiens, UniProt Q09013); assay: KINOMEscan; format: binding
T12 construct: purchased DiscoverX (KINOMEscan platform)

hEGFR(G719S) = target: T13, hEGFR(G719S) (Homo sapiens, UniProt P00533, G719S); assay: KINOMEscan; format: binding
T13 construct: purchased DiscoverX

[1] = target: T14, hEGFR(L747-E749del, A750P) (Homo sapiens, UniProt P00533, A750P/DEL747-749); assay: KINOMEscan; format: binding
T14 construct: purchased DiscoverX

hEGFR(L858R,T790M) = target: T15, hEGFR(L858R,T790M) (Homo sapiens, UniProt P00533, L858R/T790M); assay: KINOMEscan; format: binding
T15 construct: purchased DiscoverX

hEGFR(T790M) = target: T16, hEGFR(T790M) (Homo sapiens, UniProt P00533, T790M); assay: KINOMEscan; format: binding
T16 construct: purchased DiscoverX

hERBB2 = target: T17, hERBB2 (Homo sapiens, UniProt P04626); assay: KINOMEscan; format: binding
T17 construct: purchased DiscoverX

hERK2 = target: T18, hERK2 (Homo sapiens, UniProt P28482); assay: KINOMEscan; format: binding
T18 construct: purchased DiscoverX

hGAK = target: T19, hGAK (Homo sapiens, UniProt O14976); assay: KINOMEscan; format: binding
T19 construct: purchased DiscoverX

hGSK3A = target: T20, hGSK3A (Homo sapiens, UniProt P49840); assay: KINOMEscan; format: binding
T20 construct: purchased DiscoverX

hGSK3B = target: T21, hGSK3B (Homo sapiens, UniProt P49841); assay: KINOMEscan; format: binding
T21 construct: purchased DiscoverX

hIKK-epsilon = target: T22, hIKK-epsilon (Homo sapiens, UniProt Q14164); assay: KINOMEscan; format: binding
T22 construct: purchased DiscoverX (KINOMEscan panel)

hJNK2 = target: T23, hJNK2 (Homo sapiens, UniProt P45984); assay: KINOMEscan; format: binding
T23 construct: purchased DiscoverX (KINOMEscan panel)

hLATS2 = target: T24, hLATS2 (Homo sapiens, UniProt Q9NRM7); assay: KINOMEscan; format: binding
T24 construct: purchased DiscoverX (KINOMEscan platform)

hMAK = target: T25, hMAK (Homo sapiens, UniProt P20794); assay: KINOMEscan; format: binding
T25 construct: purchased DiscoverX (KINOMEscan platform)

hMAP4K2 = target: T26, hMAP4K2 (Homo sapiens, UniProt Q12851); assay: KINOMEscan; format: binding
T26 construct: purchased DiscoverX (KINOMEscan platform)

[2] = target: T27, hRPS6KA4(Kin.Dom.1-N-term) (Homo sapiens, UniProt O75676); assay: KINOMEscan; format: binding
T27 construct: hRPS6KA4(Kin.Dom.1-N-term); purchased DiscoverX (KINOMEscan platform)

hRSK3(Kin.Dom.2-C-term) = target: T28, hRSK3(Kin.Dom.2-C-term) (Homo sapiens, UniProt Q15349); assay: KINOMEscan; format: binding
T28 construct: hRSK3(Kin.Dom.2-C-term); purchased DiscoverX (KINOMEscan platform)

hSNRK = target: T29, hSNRK (Homo sapiens, UniProt Q9NRH2); assay: KINOMEscan; format: binding
T29 construct: purchased DiscoverX (KINOMEscan platform)

hTEC = target: T30, hTEC (Homo sapiens, UniProt P42680); assay: KINOMEscan; format: binding
T30 construct: purchased DiscoverX

hTLK1 = target: T31, hTLK1 (Homo sapiens, UniProt Q9UKI8); assay: KINOMEscan; format: binding
T31 construct: purchased DiscoverX

hTSSK1B = target: T32, hTSSK1B (Homo sapiens, UniProt Q9BXA7); assay: KINOMEscan; format: binding
T32 construct: purchased DiscoverX

hVEGFR2 = target: T33, hVEGFR2 (Homo sapiens, UniProt P35968); assay: KINOMEscan; format: binding
T33 construct: purchased DiscoverX

hLXRβ = target: T34, hLXRβ (Homo sapiens, UniProt P55055); assay: Nuclear hormone receptor assay (Eurofins-CEREP); settings: read-out: Relative IC50
T34 construct: Eurofins-CEREP

hPPARδ = target: T35, hPPARδ (Homo sapiens, UniProt Q03181); assay: Nuclear hormone receptor assay (Eurofins-CEREP); settings: read-out: Relative IC50
T35 construct: Eurofins-CEREP

hPPARγ = target: T36, hPPARγ (Homo sapiens, UniProt P37231); assay: Nuclear hormone receptor assay (Eurofins-CEREP); settings: read-out: Relative IC50
T36 construct: Eurofins-CEREP

hTRβ1 = target: T37, hTRβ1 (Homo sapiens, UniProt P10828); assay: Nuclear hormone receptor assay (Eurofins-CEREP); settings: read-out: Relative IC50
T37 construct: Eurofins-CEREP

hADRβ1 = hADRβ1 (Homo sapiens, UniProt P08588); assay: cAMP Agonist (Eurofins-CEREP); settings: @ 10 μM
hM3 = hM3 (Homo sapiens, UniProt P20309); assay: β-arrestin Antagonist (Eurofins-CEREP); settings: read-out: % Effect, Inhibition
hH1 = hH1 (Homo sapiens, UniProt P35367); assay: Ca Mobilization Potentiation (Eurofins-CEREP); settings: @ 10 μM

T29 sequence (Q9NRH2 whole entry): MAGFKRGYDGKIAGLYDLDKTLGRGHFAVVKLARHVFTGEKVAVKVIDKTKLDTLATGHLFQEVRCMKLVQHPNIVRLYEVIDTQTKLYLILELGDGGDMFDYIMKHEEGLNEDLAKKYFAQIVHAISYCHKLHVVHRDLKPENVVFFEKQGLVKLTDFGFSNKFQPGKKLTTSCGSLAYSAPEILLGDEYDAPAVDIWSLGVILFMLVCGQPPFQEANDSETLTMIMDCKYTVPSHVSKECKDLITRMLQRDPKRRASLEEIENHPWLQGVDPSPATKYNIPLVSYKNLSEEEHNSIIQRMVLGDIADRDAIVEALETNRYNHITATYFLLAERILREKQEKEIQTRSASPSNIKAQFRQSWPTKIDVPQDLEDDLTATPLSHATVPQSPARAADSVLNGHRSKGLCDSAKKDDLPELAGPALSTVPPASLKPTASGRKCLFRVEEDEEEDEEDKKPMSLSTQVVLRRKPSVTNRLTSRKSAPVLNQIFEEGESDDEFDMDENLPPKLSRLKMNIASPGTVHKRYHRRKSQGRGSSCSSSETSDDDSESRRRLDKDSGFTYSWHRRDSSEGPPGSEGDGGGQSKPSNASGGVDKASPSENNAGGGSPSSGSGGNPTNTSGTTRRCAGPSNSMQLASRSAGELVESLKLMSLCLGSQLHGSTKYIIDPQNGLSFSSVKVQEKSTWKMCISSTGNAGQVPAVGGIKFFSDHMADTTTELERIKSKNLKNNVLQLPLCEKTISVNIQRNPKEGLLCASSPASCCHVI
T34 sequence (P55055 whole entry): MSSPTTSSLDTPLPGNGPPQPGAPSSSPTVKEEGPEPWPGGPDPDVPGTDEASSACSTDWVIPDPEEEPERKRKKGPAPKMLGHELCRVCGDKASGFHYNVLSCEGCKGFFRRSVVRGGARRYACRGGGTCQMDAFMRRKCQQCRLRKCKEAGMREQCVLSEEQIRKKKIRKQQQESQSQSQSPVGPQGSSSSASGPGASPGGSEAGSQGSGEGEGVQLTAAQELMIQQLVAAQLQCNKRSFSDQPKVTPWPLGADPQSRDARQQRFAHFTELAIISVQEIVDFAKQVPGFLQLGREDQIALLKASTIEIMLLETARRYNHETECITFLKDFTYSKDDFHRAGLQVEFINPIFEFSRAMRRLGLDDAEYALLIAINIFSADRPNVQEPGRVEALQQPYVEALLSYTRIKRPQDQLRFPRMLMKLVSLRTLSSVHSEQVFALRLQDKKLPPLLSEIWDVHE
T4 sequence (Q13131 whole entry): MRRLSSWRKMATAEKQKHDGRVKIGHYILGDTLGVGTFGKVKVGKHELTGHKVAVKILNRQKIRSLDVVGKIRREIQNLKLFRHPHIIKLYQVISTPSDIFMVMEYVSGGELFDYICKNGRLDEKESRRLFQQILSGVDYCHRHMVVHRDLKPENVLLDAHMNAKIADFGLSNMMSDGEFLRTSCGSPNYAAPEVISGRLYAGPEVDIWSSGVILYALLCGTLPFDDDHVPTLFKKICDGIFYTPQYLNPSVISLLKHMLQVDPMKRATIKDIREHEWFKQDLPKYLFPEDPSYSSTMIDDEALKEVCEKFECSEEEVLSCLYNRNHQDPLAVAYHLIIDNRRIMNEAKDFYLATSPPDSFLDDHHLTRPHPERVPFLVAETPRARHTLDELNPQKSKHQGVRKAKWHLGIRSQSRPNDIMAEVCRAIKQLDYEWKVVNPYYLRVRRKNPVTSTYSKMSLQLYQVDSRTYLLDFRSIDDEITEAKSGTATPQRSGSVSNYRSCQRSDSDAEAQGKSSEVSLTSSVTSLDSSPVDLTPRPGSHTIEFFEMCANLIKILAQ
T26 sequence (Q12851 whole entry): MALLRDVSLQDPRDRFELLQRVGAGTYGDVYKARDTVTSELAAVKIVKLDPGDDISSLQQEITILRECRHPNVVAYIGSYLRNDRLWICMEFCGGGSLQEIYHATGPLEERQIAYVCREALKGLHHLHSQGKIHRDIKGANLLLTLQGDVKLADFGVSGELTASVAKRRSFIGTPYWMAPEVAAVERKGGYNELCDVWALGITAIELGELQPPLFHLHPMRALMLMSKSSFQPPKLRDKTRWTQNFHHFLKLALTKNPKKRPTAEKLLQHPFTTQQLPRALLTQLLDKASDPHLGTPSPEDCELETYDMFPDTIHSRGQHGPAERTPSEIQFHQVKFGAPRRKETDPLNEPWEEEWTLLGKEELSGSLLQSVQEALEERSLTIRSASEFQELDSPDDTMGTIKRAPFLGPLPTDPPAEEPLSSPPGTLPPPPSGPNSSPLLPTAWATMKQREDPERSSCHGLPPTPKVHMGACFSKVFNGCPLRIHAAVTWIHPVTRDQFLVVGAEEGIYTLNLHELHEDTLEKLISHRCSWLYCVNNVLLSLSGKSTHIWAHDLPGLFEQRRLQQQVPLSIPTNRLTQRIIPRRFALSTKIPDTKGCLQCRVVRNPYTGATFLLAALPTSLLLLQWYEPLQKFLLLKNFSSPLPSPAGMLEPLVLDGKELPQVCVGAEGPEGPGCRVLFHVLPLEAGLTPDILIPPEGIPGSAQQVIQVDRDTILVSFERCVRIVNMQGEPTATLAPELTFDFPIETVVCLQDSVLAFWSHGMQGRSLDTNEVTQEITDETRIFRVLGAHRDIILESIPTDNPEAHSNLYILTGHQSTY
T8 sequence (Q16566 whole entry): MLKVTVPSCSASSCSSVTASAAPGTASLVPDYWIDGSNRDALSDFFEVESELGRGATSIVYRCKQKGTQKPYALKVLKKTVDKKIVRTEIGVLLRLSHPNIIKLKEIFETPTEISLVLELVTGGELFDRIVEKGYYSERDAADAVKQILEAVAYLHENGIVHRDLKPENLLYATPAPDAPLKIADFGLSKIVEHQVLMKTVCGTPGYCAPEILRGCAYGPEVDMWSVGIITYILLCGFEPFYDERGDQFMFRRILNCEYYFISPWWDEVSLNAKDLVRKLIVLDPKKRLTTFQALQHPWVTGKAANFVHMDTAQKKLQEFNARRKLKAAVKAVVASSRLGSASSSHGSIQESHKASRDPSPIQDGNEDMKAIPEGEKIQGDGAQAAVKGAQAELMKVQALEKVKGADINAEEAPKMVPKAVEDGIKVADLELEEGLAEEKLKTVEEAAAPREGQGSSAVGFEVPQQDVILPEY
T10 sequence (Q8N568 whole entry): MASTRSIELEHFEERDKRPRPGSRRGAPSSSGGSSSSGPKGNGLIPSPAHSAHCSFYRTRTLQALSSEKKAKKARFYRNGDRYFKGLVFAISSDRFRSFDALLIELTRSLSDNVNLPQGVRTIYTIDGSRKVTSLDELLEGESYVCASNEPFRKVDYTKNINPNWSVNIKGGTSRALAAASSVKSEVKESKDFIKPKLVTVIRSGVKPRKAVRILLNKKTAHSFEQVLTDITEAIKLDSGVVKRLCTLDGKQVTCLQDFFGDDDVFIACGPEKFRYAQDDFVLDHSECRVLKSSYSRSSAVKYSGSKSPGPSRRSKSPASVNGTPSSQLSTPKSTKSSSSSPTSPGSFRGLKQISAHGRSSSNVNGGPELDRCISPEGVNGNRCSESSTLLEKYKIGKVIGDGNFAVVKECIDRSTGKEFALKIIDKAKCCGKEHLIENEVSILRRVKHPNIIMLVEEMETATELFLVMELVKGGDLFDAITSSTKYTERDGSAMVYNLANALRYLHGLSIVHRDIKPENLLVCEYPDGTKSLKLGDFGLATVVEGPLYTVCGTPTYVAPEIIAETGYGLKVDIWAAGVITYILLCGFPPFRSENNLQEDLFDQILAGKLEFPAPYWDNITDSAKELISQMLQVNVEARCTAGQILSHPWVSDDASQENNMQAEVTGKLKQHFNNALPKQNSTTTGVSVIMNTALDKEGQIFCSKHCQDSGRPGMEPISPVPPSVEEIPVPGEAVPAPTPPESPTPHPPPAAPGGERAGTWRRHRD
T15 sequence (P00533 25-1210 T790M/L858R): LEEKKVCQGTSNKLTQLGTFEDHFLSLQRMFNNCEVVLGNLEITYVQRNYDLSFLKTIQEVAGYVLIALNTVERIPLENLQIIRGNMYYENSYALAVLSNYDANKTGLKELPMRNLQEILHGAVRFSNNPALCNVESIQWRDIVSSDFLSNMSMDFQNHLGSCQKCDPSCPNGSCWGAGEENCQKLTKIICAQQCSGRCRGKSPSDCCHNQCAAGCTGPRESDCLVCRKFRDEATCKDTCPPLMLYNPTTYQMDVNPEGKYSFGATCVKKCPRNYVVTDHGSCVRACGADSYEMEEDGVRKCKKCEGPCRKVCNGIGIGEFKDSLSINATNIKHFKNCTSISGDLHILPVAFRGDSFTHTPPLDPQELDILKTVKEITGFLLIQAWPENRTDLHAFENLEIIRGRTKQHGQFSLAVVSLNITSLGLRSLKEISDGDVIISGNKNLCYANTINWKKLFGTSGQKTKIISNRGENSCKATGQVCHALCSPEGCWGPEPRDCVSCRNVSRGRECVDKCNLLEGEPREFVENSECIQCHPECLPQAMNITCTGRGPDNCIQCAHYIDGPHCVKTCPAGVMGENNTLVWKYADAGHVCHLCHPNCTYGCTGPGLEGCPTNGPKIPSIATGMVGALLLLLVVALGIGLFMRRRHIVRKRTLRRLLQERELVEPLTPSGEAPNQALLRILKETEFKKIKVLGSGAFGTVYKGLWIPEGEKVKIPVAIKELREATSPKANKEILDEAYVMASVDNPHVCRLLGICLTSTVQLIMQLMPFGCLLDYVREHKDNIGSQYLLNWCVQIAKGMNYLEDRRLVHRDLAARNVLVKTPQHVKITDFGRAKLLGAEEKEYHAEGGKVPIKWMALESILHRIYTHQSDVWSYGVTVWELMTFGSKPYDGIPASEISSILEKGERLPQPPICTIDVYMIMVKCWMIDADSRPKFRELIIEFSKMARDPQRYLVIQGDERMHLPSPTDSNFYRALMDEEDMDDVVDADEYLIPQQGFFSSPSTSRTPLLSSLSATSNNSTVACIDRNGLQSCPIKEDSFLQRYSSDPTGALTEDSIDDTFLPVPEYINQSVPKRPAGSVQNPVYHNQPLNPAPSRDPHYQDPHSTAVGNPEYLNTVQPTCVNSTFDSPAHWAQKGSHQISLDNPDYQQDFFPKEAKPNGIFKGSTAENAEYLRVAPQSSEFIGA

Cc1cn(CCN2CCN(c3ccccc3-c3cc(C#N)cc(C(=O)NCCCN4CCCC4)c3)CC2)c2ccccc12 [LLY-507, 3-cyano-5-{2-[4-[2-(3-methylindol-1-yl)ethyl]piperazin-1-yl]-phenyl}-N-[(3-pyrrolidin-1-yl)propyl]benzamide]
IC50 (hABL1-p): > 20 µM
IC50 (hAKT2): > 20 µM
IC50 (hALK): > 20 µM
IC50 (hAMPK-alpha1): > 20 µM
IC50 (hASK1): > 20 µM
IC50 (hBRSK2): > 20 µM
IC50 (hBUB1): > 20 µM
IC50 (hCAMK4): > 20 µM
IC50 (hCSNK1E): > 20 µM
IC50 (hDCAMKL2): > 20 µM
IC50 (hDDR1): > 20 µM
IC50 (hDMPK): > 20 µM
IC50 (hEGFR(G719S)): > 20 µM
IC50 [1]: > 20 µM
IC50 (hEGFR(L858R,T790M)): > 20 µM
IC50 (hEGFR(T790M)): > 20 µM
IC50 (hERBB2): > 20 µM
IC50 (hERK2): > 20 µM
IC50 (hGAK): > 20 µM
IC50 (hGSK3A): > 20 µM
IC50 (hGSK3B): > 20 µM
IC50 (hIKK-epsilon): > 20 µM
IC50 (hJNK2): > 20 µM
IC50 (hLATS2): > 20 µM
IC50 (hMAK): > 20 µM
IC50 (hMAP4K2): > 20 µM
IC50 [2]: > 20 µM
IC50 (hRSK3(Kin.Dom.2-C-term)): > 20 µM
IC50 (hSNRK): > 20 µM
IC50 (hTEC): > 20 µM
IC50 (hTLK1): > 20 µM
IC50 (hTSSK1B): > 20 µM
IC50 (hVEGFR2): > 20 µM
IC50 (hLXRβ): > 10 µM
IC50 (hPPARδ): > 10 µM
IC50 (hPPARγ): > 10 µM
IC50 (hTRβ1): > 10 µM
% Effect, Stimulation (hADRβ1): 52.7%
inhibition at 10 µM (hM3): -23.6%
% Effect, Potentiation (hH1): -8.5%

Reference: publication PMC4447944 (The Journal of Biological Chemistry, 2015)
